Four compounds from patent publication US20060074255A1, “3-Methyl-20-epi-vitamin D derivatives” (priority 2000, published 2006) can be followed below.

Each structure is given as a SMILES string.

The target of this assay is T1, bovine thymus vitamin D receptor (Bos taurus, UniProt Q28037).
T1 construct: Bovine thymus 1α,25-dihydroxyvitamin D3 receptor was purchased from Yamasa Biochemcal; purchased Yamasa Biochemcal (Choshi, Chiba, Japan) lot; 112631; host or cells: bovine thymus (tissue preparation)
T1 sequence (Q28037 1-426): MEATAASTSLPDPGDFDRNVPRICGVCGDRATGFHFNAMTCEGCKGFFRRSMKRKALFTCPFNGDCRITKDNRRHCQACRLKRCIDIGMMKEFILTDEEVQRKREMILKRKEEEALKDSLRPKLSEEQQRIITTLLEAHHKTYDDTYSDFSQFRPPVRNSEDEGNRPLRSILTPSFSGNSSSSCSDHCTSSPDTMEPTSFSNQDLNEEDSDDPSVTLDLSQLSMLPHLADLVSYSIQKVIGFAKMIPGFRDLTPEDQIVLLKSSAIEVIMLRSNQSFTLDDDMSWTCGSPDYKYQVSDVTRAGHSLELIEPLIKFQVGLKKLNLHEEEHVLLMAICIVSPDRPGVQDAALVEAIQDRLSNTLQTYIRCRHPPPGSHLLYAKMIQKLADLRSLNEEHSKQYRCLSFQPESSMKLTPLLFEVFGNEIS
The assay is described as follows: Assay for Binding to Bovine Thymus Vitamin D Receptor (VDR). To be noted: relative value with 1α,25-dihydroxyvitamin D3 taken as 100; X=(y/x)×100 from concentrations inhibiting 50% of [3H]-1α,25-dihydroxyvitamin D3 binding to VDR. The procedure:
Assay for Binding to Bovine Thymus Vitamin D Receptor (VDR)
Compounds 14, 16, 19 and 21 synthesized in the above Examples 1 to 4 were tested for their binding properties to bovine thymus vitamin D receptor.
Ethanol solutions of 1α,25-dihydroxyvitamin D3 (the standard substance) and Compounds 14, 16, 19 and 21 were prepared at various concentrations. Bovine thymus 1α,25-dihydroxyvitamin D3 receptor was purchased from Yamasa Biochemcal (Choshi, Chiba, Japan) (lot. 112631) and, just before use, one ampule (approximately 25 mg) of the receptor was dissolved in 55 mL of 0.05 M phosphate buffer (pH 7.4) containing 0.3M KCl and 5 mM dithiothreitol.
Each of the ethanol solutions (50 μl) of the test compounds and 1α,25-dihydroxyvitamin D3 was put into a respective tube with 500 μl (0.23 mg protein) of the receptor solution, pre-incubated at 25° C. for 1 hour, and [^3H]-1α,25-dihydroxyvitamin D3 was added at the final concentration of 0.1 nM, followed by incubation overnight at 4° C. Each of the reaction mixtures was mixed with DCC (dextran coated charcoal), left for 30 minutes at 4° C. and centrifuged at 3000 rpm for ten minutes to separate the bound and free forms of [^3H]-1α,25-dihydroxyvitamin D3. Each of the resultant supernatants (500 μl) was mixed with ACS-II (9.5 ml) (AMERSHAM, England) for radioactivity measurement.
The binding properties of the test compounds expressed in relative value with that of 1α,25-dihydroxyvitamin D3 taken as 100 were shown in Table below. The values were calculated according to the following equation. X=(y/x)×100 • X: relative VDR binding property of a test compound • y: concentration of 1α,25-dihydroxyvitamin D3 that inhibits 50% of the binding of [^3H]-1α,25-dihydroxyvitamin D3 and VDR
x: concentration of the test compound that inhibits 50% of the binding of [^3H]-1α,25-dihydroxyvitamin D3 and VDR

The compound `C=C1/C(=C\C=C2/CCC[C@@]3(C)C2CCC3[C@@H](C)CCCC(C)(C)O)C[C@@](C)(O)C[C@H]1O` (stereo partly drawn) [Compound 14, (5Z,7E)-(1R,3R,20S)-3-methyl-9,10-seco-5,7,10(19)-cholestatriene-1,3,25-triol] displayed a VDR binding properties of 0.035.

On to `C=C1/C(=C\C=C2/CCC[C@@]3(C)C2CCC3[C@@H](C)CCCC(C)(C)O)C[C@@](C)(O)C[C@@H]1O` (stereo partly drawn) [Compound 16, (5Z,7E)-(1S,3R,20S)-3-methyl-9,10-seco-5,7,10(19)-cholestatriene-1,3,25-triol], for which the VDR binding properties was determined as 70.

As for `C=C1/C(=C\C=C2/CCC[C@@]3(C)C2CCC3[C@@H](C)CCCC(C)(C)O)C[C@](C)(O)C[C@@H]1O` (stereo partly drawn) [Compound 19, (5Z,7E)-(lS,3S,20S)-3-methyl-9,10-seco-5,7,10(19)-cholestatriene-1,3,25-triol], the VDR binding properties came out at 0.24.

`C=C1/C(=C\C=C2/CCC[C@@]3(C)C2CCC3[C@@H](C)CCCC(C)(C)O)C[C@](C)(O)C[C@H]1O` (stereo partly drawn) [Compound 21, (5Z,7E)-(1R,3S,20S)-3-Methyl-9,10-seco-5,7,10(19)-cholestatriene-1,3,25-triol] gave a VDR binding properties of less than 0.01.
